Here are results for seven molecules from patent US10633366B2, “Antibacterial compounds” (AZIENDE CHIMICHE RIUNITE ANGELINI FRANCESCO A.C.R.A.F. …, priority 2016, dated 2020).

Experiment in all cases: biochemical
Assay [1] concerns the target E. coli DNA gyrase (Escherichia coli, UniProt P0AES4+P0AES6). The note with it: for inhibition at 50 µM: read-out: % inhibition DNA gyrase; for IC50: IC50 DNA gyrase.
Assay [2] deals with E. coli Topoisomerase IV (Escherichia coli, UniProt P0AFI2+P20083). The note with it: for inhibition at 50 µM: read-out: % inhibition Topo IV; for IC50: IC50 Topo IV.
Assay [3] has as its target S. aureus DNA gyrase (Staphylococcus aureus, UniProt P0A0K8+P20831). The note with it: for inhibition at 50 µM: read-out: % inhibition DNA gyrase; for IC50: IC50 DNA gyrase.
The target of assay [4] is S. aureus Topoisomerase IV (Staphylococcus aureus, UniProt P0C1S7+P0C1U9). The note with it: for inhibition at 50 µM: read-out: % inhibition Topo IV; for IC50: IC50 Topo IV.
Setting [5] is: S. aureus, compound conc. 50 μM, percent of inhibition versus positive control, n/a = not active.

Like-named read-outs stand apart in the source and are kept apart here. Bounds are passed on as bounds.

Sequence of S. aureus DNA gyrase (P0A0K8 whole entry): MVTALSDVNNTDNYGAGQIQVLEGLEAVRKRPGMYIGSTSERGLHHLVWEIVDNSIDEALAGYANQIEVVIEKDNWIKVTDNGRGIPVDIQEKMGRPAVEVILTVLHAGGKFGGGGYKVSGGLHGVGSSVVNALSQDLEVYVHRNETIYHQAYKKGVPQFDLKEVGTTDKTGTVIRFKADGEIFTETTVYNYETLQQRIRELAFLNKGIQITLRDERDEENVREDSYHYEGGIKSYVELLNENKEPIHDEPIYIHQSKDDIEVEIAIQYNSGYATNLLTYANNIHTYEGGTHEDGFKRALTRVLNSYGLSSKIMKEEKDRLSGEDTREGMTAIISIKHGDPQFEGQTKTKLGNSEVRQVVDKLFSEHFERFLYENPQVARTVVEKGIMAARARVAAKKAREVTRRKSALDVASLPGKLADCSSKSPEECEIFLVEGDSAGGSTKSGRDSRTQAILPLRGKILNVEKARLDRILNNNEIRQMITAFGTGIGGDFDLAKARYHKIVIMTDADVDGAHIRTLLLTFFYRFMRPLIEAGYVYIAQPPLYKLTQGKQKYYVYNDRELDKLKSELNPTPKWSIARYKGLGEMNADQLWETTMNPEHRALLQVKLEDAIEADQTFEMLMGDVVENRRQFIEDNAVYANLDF
Sequence of S. aureus DNA gyrase (P20831 whole entry): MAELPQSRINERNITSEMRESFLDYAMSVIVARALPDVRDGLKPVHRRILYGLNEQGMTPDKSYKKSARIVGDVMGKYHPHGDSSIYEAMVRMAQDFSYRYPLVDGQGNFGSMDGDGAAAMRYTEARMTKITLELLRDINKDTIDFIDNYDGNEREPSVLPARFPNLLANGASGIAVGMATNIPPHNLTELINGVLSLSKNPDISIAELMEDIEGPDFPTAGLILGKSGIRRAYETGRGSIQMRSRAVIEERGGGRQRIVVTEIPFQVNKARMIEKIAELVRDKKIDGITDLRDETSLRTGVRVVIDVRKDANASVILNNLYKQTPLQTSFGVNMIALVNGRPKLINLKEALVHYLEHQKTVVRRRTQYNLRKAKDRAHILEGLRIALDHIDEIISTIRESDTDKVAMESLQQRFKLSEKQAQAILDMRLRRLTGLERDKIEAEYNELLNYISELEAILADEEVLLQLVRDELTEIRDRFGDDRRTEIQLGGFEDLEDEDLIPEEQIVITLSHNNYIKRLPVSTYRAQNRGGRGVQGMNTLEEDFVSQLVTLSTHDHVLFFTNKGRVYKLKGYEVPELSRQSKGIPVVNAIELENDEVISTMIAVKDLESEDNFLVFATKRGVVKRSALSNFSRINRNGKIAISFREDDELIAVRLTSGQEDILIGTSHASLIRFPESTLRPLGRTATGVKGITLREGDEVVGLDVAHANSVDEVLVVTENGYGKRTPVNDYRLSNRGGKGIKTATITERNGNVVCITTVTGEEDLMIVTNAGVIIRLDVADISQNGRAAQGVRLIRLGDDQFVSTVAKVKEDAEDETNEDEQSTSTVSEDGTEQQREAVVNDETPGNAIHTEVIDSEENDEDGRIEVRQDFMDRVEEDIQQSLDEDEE
Sequence of S. aureus Topoisomerase IV (P0C1U9 whole entry): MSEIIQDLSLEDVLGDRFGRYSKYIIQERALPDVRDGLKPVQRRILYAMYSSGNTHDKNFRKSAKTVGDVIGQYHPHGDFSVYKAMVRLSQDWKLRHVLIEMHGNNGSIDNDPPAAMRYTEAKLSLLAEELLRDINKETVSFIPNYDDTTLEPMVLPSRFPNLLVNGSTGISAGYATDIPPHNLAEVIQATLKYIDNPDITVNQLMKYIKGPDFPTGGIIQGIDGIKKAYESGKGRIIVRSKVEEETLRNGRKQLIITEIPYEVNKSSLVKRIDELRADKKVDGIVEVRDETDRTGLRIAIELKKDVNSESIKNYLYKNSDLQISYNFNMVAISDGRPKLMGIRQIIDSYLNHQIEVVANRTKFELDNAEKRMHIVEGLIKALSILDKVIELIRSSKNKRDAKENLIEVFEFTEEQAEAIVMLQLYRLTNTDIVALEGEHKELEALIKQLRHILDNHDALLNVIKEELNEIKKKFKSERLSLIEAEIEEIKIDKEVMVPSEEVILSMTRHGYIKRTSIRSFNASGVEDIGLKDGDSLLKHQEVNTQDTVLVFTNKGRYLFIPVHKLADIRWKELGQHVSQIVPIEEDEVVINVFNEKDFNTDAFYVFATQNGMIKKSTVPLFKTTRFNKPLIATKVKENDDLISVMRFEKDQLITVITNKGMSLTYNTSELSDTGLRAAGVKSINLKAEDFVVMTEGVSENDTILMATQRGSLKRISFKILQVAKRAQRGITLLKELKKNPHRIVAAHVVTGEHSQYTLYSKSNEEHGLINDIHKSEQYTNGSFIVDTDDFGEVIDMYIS
Sequence of S. aureus Topoisomerase IV (P0C1S7 whole entry): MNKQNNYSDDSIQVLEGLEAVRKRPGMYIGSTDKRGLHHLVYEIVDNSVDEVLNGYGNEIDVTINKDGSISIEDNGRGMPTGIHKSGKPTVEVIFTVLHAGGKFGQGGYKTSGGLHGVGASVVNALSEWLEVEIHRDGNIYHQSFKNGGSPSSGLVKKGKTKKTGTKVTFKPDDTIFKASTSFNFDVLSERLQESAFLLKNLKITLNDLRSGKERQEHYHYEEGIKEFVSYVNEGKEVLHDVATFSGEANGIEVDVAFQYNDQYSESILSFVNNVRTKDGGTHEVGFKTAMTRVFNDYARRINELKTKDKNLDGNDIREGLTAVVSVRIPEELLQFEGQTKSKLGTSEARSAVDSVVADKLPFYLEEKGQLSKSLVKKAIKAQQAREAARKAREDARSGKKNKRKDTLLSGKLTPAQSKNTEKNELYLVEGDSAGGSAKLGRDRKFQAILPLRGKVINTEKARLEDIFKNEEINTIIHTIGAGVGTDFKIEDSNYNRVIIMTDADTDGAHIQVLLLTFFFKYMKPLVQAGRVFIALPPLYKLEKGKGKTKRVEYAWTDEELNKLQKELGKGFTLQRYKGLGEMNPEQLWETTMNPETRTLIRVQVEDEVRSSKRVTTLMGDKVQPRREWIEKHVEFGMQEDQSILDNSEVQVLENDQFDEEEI
Sequence of E. coli Topoisomerase IV (P0AFI2 whole entry): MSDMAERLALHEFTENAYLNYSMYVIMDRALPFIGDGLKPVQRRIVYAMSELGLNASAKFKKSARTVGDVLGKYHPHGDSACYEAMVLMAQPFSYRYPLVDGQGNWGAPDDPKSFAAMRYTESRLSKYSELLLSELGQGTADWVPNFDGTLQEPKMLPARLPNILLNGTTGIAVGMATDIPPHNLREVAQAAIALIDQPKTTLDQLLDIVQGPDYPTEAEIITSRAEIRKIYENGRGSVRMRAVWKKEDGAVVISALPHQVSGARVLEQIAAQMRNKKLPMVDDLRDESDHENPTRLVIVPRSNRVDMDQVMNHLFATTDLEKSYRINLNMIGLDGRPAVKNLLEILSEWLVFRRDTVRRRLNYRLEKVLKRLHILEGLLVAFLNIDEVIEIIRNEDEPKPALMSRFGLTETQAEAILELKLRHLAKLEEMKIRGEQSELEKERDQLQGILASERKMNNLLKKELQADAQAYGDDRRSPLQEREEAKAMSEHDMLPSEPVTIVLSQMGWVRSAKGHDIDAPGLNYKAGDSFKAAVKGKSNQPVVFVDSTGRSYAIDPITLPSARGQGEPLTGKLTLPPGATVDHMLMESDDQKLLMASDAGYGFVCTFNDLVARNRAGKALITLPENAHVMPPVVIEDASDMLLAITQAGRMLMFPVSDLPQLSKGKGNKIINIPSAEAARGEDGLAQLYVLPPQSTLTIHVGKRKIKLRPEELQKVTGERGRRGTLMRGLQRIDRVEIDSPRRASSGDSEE
Sequence of E. coli Topoisomerase IV (P20083 whole entry): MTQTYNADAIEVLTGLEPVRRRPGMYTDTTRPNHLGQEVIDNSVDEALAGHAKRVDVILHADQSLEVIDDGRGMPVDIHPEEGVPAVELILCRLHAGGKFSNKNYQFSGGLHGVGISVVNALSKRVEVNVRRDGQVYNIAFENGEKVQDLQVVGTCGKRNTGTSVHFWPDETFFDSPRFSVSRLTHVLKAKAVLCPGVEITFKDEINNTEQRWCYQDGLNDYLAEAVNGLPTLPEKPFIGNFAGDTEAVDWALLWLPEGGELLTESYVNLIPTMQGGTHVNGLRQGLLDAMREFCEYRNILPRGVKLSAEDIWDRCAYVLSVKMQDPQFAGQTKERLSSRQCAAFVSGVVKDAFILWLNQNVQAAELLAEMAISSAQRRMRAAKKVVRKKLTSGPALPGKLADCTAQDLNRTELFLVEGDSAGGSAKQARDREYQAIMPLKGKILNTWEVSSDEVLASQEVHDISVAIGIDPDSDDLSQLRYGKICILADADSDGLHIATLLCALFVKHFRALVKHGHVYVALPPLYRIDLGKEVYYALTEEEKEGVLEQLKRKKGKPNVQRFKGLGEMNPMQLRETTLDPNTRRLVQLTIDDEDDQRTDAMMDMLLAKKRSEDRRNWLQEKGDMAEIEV

By inhibition is commonly meant how much of the control response was suppressed. For the molecule `COc1ccc2ncc(=O)n(C3CCN(CCc4cc5c(=O)oc6ccc(F)cc6c5[nH]4)CC3)c2n1` [Compound 197, 8-fluoro-2-{2-[4-(6-methoxy-3-oxopyrido[2,3-b]pyrazin-4(3H)-yl)piperidin-1-yl]ethyl}[1]benzopyrano[4,3-b]pyrrol-4(1H)-one], the inhibition at 50 µM in assay [1] turned out to be 87%; in assay [2] it was 63%; in assay [3], 90%; in assay [4], 79%.
In general, IC50 refers to the point on the concentration scale where inhibition reaches its midpoint. In the case of `O=c1nc(NCC(O)CN2CCN(c3nccc4cc[n+]([O-])cc34)CC2)c2cc(F)ccc2o1` (stereo not shown) [Compound 164, 8-(4-(3-((6-fluoro-2-oxo-2H-benzo[e][1,3]oxazin-4-yl)amino)-2-hydroxypropyl)piperazin-1-yl)-2,7-naphthyridine 2-oxide], the IC50 in assay [1] amounted to 3770 nM; in assay [2], 1780 nM; in assay [3], 1460 nM; in assay [4] it was 700 nM. Further, the inhibition at 50 µM in assay [1], in assay [2], in assay [3] and in assay [4] was 100% throughout.
As to `N#Cc1ccc2ccc(=O)n([C@H]3CC[C@H](NCc4cc5c(=O)oc6ccc(F)cc6c5[nH]4)CC3)c2c1` [Compound 206, 1-(trans-4-{[(8-fluoro-4-oxo-1,4-dihydro[1]benzopyrano[4,3-b]pyrrol-2-yl)methyl]amino}cyclohexyl)-2-oxo-1,2-dihydroquinoline-7-carbonitrile], the IC50 in assay [1] was 50 nM; in assay [2], under 100 nM; in assay [3] it was 130 nM; in assay [4] it was under 100 nM. Moreover, the inhibition at 50 µM in assay [1], in assay [2], in assay [3] and in assay [4] (setting [5]) was 100% each time.
As to `O=C1COc2ncc(F)cc2N1[C@H]1CC[C@](CO)(NCc2cc3c(=O)oc4ccc(F)cc4c3[nH]2)CC1` [Compound 220, 8-fluoro-2-({[trans-4-(7-fluoro-2-oxo-2,3-dihydro-1H-pyrido[2,3-b][1,4]oxazin-1-yl)-1-(hydroxymethyl)cyclohexyl]amino}methyl)[1]benzopyrano[4,3-b]pyrrol-4(1H)-one], the half-inhibitory concentration (IC50) in assay [1] is 680 nM; in assay [2] it was 740 nM; in assay [3] it was 1970 nM; in assay [4], 2910 nM. Also, the inhibition at 50 µM in assay [1] was found to be 100%; in assay [2], 50%; in assay [3], 100%; in assay [4] (setting [5]), 100%.
Regarding `O=c1oc2ccc(F)cc2c2[nH]c(CN[C@H]3CC[C@H](n4c(=O)ccc5ncc(F)cc54)CC3)cc12` [Compound 207, 8-fluoro-2-({[trans-4-(7-fluoro-2-oxo-1,5-naphthyridin-1(2H)-yl)cyclohexyl]amino}methyl)[1]benzopyrano[4,3-b]pyrrol-4(1H)-one], the IC50 in assay [1], in assay [2], in assay [3] and in assay [4] was under 100 nM throughout. Also, the inhibition at 50 µM in assay [1], in assay [2], in assay [3] and in assay [4] (setting [5]) was 100% in each case.
Turning to `COc1cnc2ncc(=O)n([C@H]3CC[C@H](NCc4cc5c(=O)oc6ccc(F)cc6c5[nH]4)CC3)c2c1` [Compound 212, 8-fluoro-2-({[trans-4-(7-methoxy-2-oxopyrido[2,3-b]pyrazin-1(2H)-yl)cyclohexyl]amino}methyl)[1]benzopyrano[4,3-b]pyrrol-4(1H)-one], the IC50 was 100 nM in assay [1], 170 nM in assay [2], 140 nM in assay [3] and 70 nM in assay [4]. In addition, the inhibition at 50 µM in assay [1], in assay [2], in assay [3] and in assay [4] (setting [5]) was 100% each time.
For `COc1cnc2ccc(=O)n(C3CCN(CCc4cc5c(=O)oc6ccc(F)cc6c5[nH]4)CC3)c2n1` [Compound 200], the IC50 in assay [1] was 40 nM; in assay [2] it was under 100 nM; in assay [3], under 100 nM; in assay [4] it was under 100 nM. The inhibition at 50 µM in assay [1] was determined as 90%; in assay [2] it was 100%; in assay [3] it was 100%; in assay [4], 100%.
